Patent US9328122B2, “7-substituted Hanfangichin B derivative, and preparation method and use thereof” (HANGZHOU BENSHENG PHARMACEUTICAL CO., LTD., priority 2012, dated 2016)
Converted amounts (≈) assume the structure as drawn.

Experiments:
[1] = tested on: Jurkat (acute lymphoblastic leukemia) cells; experiment: MTT cell growth inhibition, leukemia cells; format: cell-based, human; settings: Homo sapiens, Jurkat, 72 h, MTT; for IC50: read-out: IC50; for IC90: read-out: IC90
Summary of the method: (§1)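 Growth inhibition is assessed by MTT after leukemia cells, plated at 6000 per well in RPMI-1640 containing 10% fetal bovine serum, are exposed for 72 hours to graded compound concentrations added the day after plating.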

[2] = tested on: Kasumi-1 (acute myeloid leukemia M2 type) cells; experiment: MTT cell growth inhibition, leukemia cells; format: cell-based, human; settings: for IC50 / IC90: Homo sapiens, Kasumi-1, 72 h, MTT; for IC50: read-out: IC50; for IC90: read-out: IC90
Summary of the method: as §1

[3] = tested on: H9 (acute lymphoblastic leukemia) cells; experiment: MTT cell growth inhibition, leukemia cells; format: cell-based, human; settings: Homo sapiens, H9, 72 h, MTT; for IC50: read-out: IC50; for IC90: read-out: IC90
Summary of the method: as §1

[4] = tested on: NB4 (acute promyelocytic leukemia) cells; experiment: MTT cell growth inhibition, leukemia cells; format: cell-based; settings: Homo sapiens, NB4, 72 h, MTT; for IC50: read-out: IC50; for IC90: read-out: IC90
Summary of the method: as §1

[5] = tested on: K562/ADR (K562adr, drug-resistant chronic myeloid leukemia) cells; experiment: MTT cell growth inhibition, leukemia cells; format: cell-based; settings: Homo sapiens, K562/ADR, 72 h, MTT; for IC50: read-out: IC50; for IC90: read-out: IC90
Summary of the method: as §1

[6] = tested on: MGC-803 (human gastric cancer) cells; experiment: MTT cell growth inhibition, solid tumor cells; format: cell-based; settings: MGC-803, 72 h, MTT; for IC50: read-out: IC50; for IC90: read-out: IC90
Summary of the method: (§2)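 Exposure lasted 72 h, following 24 h growth of 6000 cells/well in DMEM high glucose containing 10% FBS at 37 °C in 5% CO2; endpoint was MTT-based viable cell concentration across tested compound concentrations.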

[7] = tested on: Hela (human cervical cancer) cells; experiment: MTT cell growth inhibition, solid tumor cells; format: cell-based; settings: for IC50 / IC90: Homo sapiens, Hela, 72 h, MTT; for IC50: read-out: IC50; for IC90: read-out: IC90
Summary of the method: as §2

[8] = tested on: RKO (human colon adenocarcinoma) cells; experiment: MTT cell growth inhibition, solid tumor cells; format: cell-based; settings: Homo sapiens, RKO, 72 h, MTT; for IC50: read-out: IC50; for IC90: read-out: IC90
Summary of the method: as §2

[9] = tested on: Hep G2 (human liver cancer) cells; experiment: MTT cell growth inhibition, solid tumor cells; format: cell-based; settings: Homo sapiens, HepG2, Hep G2, 72 h, MTT; for IC50: read-out: IC50; for IC90: read-out: IC90
Summary of the method: as §2

[10] = tested on: Becap-37 (human breast cancer) cells; experiment: MTT cell growth inhibition, solid tumor cells; format: cell-based; settings: Homo sapiens, Becap-37, 72 h, MTT; for IC50: read-out: IC50; for IC90: read-out: IC90
Summary of the method: as §2

[11] = tested on: MG-63 (osteosarcoma) cells; experiment: MTT cell growth inhibition, solid tumor cells; format: cell-based; settings: Homo sapiens, MG-63, 72 h, MTT; for IC50: read-out: IC50; for IC90: read-out: IC90
Summary of the method: as §2

[12] = tested on: RPMI 8226 (multiple myeloma) cells; experiment: MTT cell growth inhibition, multiple myeloma cells; format: cell-based, human; settings: Homo sapiens, RPMI 8226, 72 h, MTT; for IC50: read-out: IC50; for IC90: read-out: IC90
Summary of the method: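 RPMI 8226 myeloma cells, 6000 per well in RPMI-1640 with 10% FBS, were dosed with fangchinoline derivatives at several concentrations the day after seeding. Incubation ran 72 h at 37° C in 5% CO2, then viable cells were measured by MTT.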

[13] = tested on: SK-OV-3 (ovarian cancer) cells; experiment: MTT cell growth inhibition, solid tumor cells; format: cell-based, human; settings: Homo sapiens, SK-OV-3, 72 h, MTT; for IC50: read-out: IC50; for IC90: read-out: IC90
Summary of the method: as §2

[14] = tested on: PC-3 (prostate cancer) cells; experiment: MTT cell growth inhibition, solid tumor cells; format: cell-based, human; settings: Homo sapiens, PC-3, 72 h, MTT; for IC50: read-out: IC50; for IC90: read-out: IC90
Summary of the method: as §2

[15] = tested on: CaEs-17 (esophageal cancer) cells; experiment: MTT cell growth inhibition, solid tumor cells; format: cell-based, human; settings: Homo sapiens, CaEs17, CaEs-17, 72 h, MTT; for IC50: read-out: IC50; for IC90: read-out: IC90
Summary of the method: as §2

[16] = tested on: CNE (nasopharyngeal carcinoma) cells; experiment: MTT cell growth inhibition, solid tumor cells; format: cell-based, human; settings: Homo sapiens, CNE, 72 h, MTT; for IC50: read-out: IC50; for IC90: read-out: IC90
Summary of the method: as §2

[17] = tested on: PANC-1 (pancreatic cancer) cells; experiment: MTT cell growth inhibition, solid tumor cells; format: cell-based, human; settings: Homo sapiens, PANC-1, 72 h, MTT; for IC50: read-out: IC50; for IC90: read-out: IC90
Summary of the method: as §2

tumor = experiment: Antitumor activity compared with fangchinoline, overall statement; format: cell-based; settings: tumor type not specified

IC50 [1] [µg/mL]	IC90 [1] [µg/mL]	IC50 [2] [µg/mL]	IC90 [2] [µg/mL]	IC50 [3] [µg/mL]	IC90 [3] [µg/mL]	IC50 [4] [µg/mL]	IC90 [4] [µg/mL]	IC50 [5] [µg/mL]	IC90 [5] [µg/mL]	IC50 [6] [µg/mL]	IC90 [6] [µg/mL]	IC50 [7] [µg/mL]	IC90 [7] [µg/mL]	IC50 [8] [µg/mL]	IC90 [8] [µg/mL]	IC50 [9] [µg/mL]	IC90 [9] [µg/mL]	IC50 [10] [µg/mL]	IC90 [10] [µg/mL]	Structure (SMILES)	also measured
0.51 (≈ 0.66 µM)	0.98 (≈ 1.27 µM)	0.57 (≈ 0.737 µM)	1.85 (≈ 2.39 µM)	1.2 (≈ 1.55 µM)	2 (≈ 2.59 µM)	0.22 (≈ 0.285 µM)	0.96 (≈ 1.24 µM)	0.48 (≈ 0.621 µM)	2.83 (≈ 3.66 µM)	1.4 (≈ 1.81 µM)	4.79 (≈ 6.2 µM)	0.5 (≈ 0.647 µM)	2.89 (≈ 3.74 µM)	1.32 (≈ 1.71 µM)	3.24 (≈ 4.19 µM)	1.4 (≈ 1.81 µM)	2.76 (≈ 3.57 µM)	1.53 (≈ 1.98 µM)	3.03 (≈ 3.92 µM)	COc1cc(OC)cc(C(=O)Oc2c(OC)cc3c4c2Oc2cc5c(cc2OC)CCN(C)[C@H]5Cc2ccc(cc2)Oc2cc(ccc2OC)C[C@@H]4N(C)CC3)c1 [BS-FC-311]	anti-Kasumi-1 activity increase over fangchinoline ([2]; relative to fangchinoline, Table 1): ~2 fold; anti-Hela activity increase over fangchinoline ([7]; relative to fangchinoline, Table 2): ~4 fold; IC50 [11]: 2 µg/mL (≈ 2.59 µM); IC90 [11]: 4.37 µg/mL (≈ 5.65 µM); IC50 [12]: 0.13 µg/mL (≈ 0.168 µM); IC90 [12]: 0.49 µg/mL (≈ 0.634 µM); IC50 [13]: 2.87 µg/mL (≈ 3.71 µM); IC90 [13]: 3.96 µg/mL (≈ 5.12 µM); IC50 [14]: 3.08 µg/mL (≈ 3.99 µM); IC90 [14]: 8.39 µg/mL (≈ 10.9 µM); IC50 [15]: 1.95 µg/mL (≈ 2.52 µM); IC90 [15]: 7.37 µg/mL (≈ 9.54 µM); IC50 [16]: 1.83 µg/mL (≈ 2.37 µM); IC90 [16]: 5.04 µg/mL (≈ 6.52 µM); IC50 [17]: 2.95 µg/mL (≈ 3.82 µM); IC90 [17]: 4.8 µg/mL (≈ 6.21 µM); antitumor activity compared with that of fangchinoline (tumor): significantly superior
0.59 (≈ 0.771 µM)	1.24 (≈ 1.62 µM)	0.85 (≈ 1.11 µM)	3.04 (≈ 3.97 µM)	2 (≈ 2.61 µM)	3.77 (≈ 4.93 µM)	0.33 (≈ 0.431 µM)	1.32 (≈ 1.72 µM)	0.26 (≈ 0.34 µM)	2.14 (≈ 2.8 µM)	1.21 (≈ 1.58 µM)	3.02 (≈ 3.95 µM)	1.5 (≈ 1.96 µM)	3.35 (≈ 4.38 µM)	1.15 (≈ 1.5 µM)	2.23 (≈ 2.91 µM)	1.39 (≈ 1.82 µM)	3.74 (≈ 4.89 µM)	2.1 (≈ 2.74 µM)	3.79 (≈ 4.95 µM)	COc1ccc2cc1Oc1ccc(cc1)C[C@H]1c3cc(c(OC)cc3CCN1C)Oc1c(OC(=O)c3c(F)cccc3Cl)c(OC)cc3c1[C@H](C2)N(C)CC3 [BS-FC-315]	IC50 [11]: 2.4 µg/mL (≈ 3.14 µM); IC90 [11]: 3.9 µg/mL (≈ 5.1 µM); IC50 [12]: 0.13 µg/mL (≈ 0.17 µM); IC90 [12]: 0.48 µg/mL (≈ 0.627 µM); IC50 [13]: 2.99 µg/mL (≈ 3.91 µM); IC90 [13]: 6.81 µg/mL (≈ 8.9 µM); IC50 [14]: 2.95 µg/mL (≈ 3.85 µM); IC90 [14]: 5.02 µg/mL (≈ 6.56 µM); IC50 [15]: 1.84 µg/mL (≈ 2.4 µM); IC90 [15]: 3.86 µg/mL (≈ 5.04 µM); IC50 [16]: 3.3 µg/mL (≈ 4.31 µM); IC90 [16]: 6.6 µg/mL (≈ 8.62 µM); IC50 [17]: 1.61 µg/mL (≈ 2.1 µM); IC90 [17]: 5.52 µg/mL (≈ 7.21 µM); antitumor activity compared with that of fangchinoline (tumor): significantly superior
